This note sets out measurements from patent publication US8933070B2, “Methods of targeting PTEN mutant diseases and compositions therefor” (University Health Network, priority 2010, dated 2015).

Assay [1] deals with AMPKalpha. The assay can be described thus: Kinase selectivity assay (CEREP, HTRF). Format: biochemical, human. As to the method: (§1) The inhibitory activity of selected compounds was evaluated against a panel of 45 different kinase enzymes by CEREP, France. The assays were performed using standard HTRF assay methods as documented by CEREP against the human orthologues of Abl kinase, Akt1/PKBa, AMPKa, BMX kinase (Etk), Brk, CaMK2a, CaMK4, CDC2/CDK1 (cycB), CHK1, CHK2, c-Met kinase, CSK, EphB4 kinase, ERK1, ERK2 (P42mapk), FGFR2 kinase, FGFR4 kinase, FLT-1 kinase (VEGFR1), FLT-3 kinase, Fyn kinase, IGF1R kinase, IRK (InsR), JNK 2, KDR kinase (VEGFR2), Lck kinase, Lyn kinase, MAPKAPK2, MEK1/MAP2K1, p38a kinase, p38d kinase, p38g kinase, PDGFRb kinase, PDK1, PKA, PKCa, PKCb1, PKCb2, PKCg, Ret kinase, ROCK2, RSK2, Src kinase, Syk, and TRKA. The % Inhibition was determined by the formula; % Inhibition=100×(1−(experimental value−background value)/(high activity control−background value)).
For orientation: Time-resolved FRET reads energy transfer from a long-lived donor to a nearby acceptor.

Assay [2] addresses FGFR2 (Homo sapiens, UniProt P21802). Description: Kinase selectivity assay (CEREP, HTRF). The class given is biochemical. The following applies: read-out: % Inhibition at 10 μM Concentration. As to the method:
as §1

The target of assay [3] is KDR (VEGFR2) (Homo sapiens, UniProt P35968). Description: Kinase selectivity assay (CEREP, HTRF). The class given is biochemical. To be noted: read-out: % Inhibition at 10 μM Concentration. On the procedure: as §1
Sequence of KDR (VEGFR2) (P35968 20-1356): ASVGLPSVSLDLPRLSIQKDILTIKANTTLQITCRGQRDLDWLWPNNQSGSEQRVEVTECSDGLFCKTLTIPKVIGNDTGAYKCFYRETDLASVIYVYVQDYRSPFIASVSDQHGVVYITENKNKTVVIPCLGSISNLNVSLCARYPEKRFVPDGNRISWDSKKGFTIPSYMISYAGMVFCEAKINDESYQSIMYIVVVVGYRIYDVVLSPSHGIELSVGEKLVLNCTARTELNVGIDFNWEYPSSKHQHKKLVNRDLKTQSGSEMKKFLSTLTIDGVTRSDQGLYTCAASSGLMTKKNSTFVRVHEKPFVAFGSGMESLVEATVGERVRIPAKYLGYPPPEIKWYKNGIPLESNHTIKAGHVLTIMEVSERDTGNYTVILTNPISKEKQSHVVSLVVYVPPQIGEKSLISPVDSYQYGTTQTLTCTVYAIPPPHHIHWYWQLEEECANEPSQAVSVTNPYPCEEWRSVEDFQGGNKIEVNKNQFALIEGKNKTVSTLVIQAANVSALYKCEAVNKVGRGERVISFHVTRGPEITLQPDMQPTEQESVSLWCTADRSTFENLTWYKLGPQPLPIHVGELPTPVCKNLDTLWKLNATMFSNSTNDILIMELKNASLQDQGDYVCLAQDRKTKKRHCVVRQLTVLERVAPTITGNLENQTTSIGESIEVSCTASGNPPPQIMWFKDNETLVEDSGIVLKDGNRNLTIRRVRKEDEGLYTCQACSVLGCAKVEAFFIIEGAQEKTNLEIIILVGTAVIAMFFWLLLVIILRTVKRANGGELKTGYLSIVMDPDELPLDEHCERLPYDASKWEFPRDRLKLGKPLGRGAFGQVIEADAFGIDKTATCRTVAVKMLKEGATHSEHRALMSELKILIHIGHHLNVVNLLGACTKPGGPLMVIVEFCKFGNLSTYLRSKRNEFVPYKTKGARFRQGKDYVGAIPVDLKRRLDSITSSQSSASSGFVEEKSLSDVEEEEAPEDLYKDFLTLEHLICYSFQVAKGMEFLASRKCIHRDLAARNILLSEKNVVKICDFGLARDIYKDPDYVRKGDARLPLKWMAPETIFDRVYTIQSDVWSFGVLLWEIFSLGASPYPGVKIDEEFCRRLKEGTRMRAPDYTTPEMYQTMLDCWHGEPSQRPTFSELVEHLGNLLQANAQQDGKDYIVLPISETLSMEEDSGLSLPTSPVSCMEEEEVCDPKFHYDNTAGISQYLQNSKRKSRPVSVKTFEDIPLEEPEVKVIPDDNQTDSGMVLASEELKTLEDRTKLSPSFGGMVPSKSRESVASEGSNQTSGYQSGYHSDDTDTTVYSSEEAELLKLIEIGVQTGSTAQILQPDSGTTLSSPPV
The test system of assay [4] is MDA-MB-231 breast cancer cell line. The assay can be described thus: Cell growth inhibition, SRB assay, extended panel. Format: cell-based. To be noted: Homo sapiens, MDA-MB-231, read-out: GI50 Range MDA-MB-231.
Experimental: Breast cancer and normal cells were seeded at various concentrations, ranging from 1500 to 4000 per 80 μl according to cell growth rate, into 96-well plates 24 hours before compound overlay. Each 10 mM stock solution in 100% DMSO of the compounds was diluted with Opti-MEM I Reduced-Serum Medium (Invitrogen, Canada) to make concentration ranges from 50 nM to 250 μM. 20 μl from each concentration was added to the cells to make the final concentration range from 10 nM to 50 μM. The cells were cultured at 37° C. for 5 days before the Sulforhodamine B (SRB) assay was performed to assess cell survival. SRB is a water-soluble dye that binds to the basic amino acids of cellular proteins. Thus, colorimetric measurement of the bound dye provides an estimate of the total protein mass and is related to cell number. The cells were fixed in situ by gently aspirating off the culture media and adding 50 μl ice-cold 10% Tri-chloroacetic Acid (TCA) per well and incubation at 4° C. for 30-60 min. The plates were washed with tap water five times and allowed to air dry for 5 min. […] Absorbances were read at 570 nm. The cell survival percentage at each compound concentration was calculated over the cell DMSO control, which was growing in the presence of 0.1% DMSO (0.5% in the case of 50 μM compounds). Cell viability GI50 values were calculated using GraphPad PRISM software (GraphPad Software, Inc.).
The subject of assay [5] is 184A1 immortalized breast cell line. The assay can be described thus: Cell growth inhibition, SRB assay, extended panel. The class given is cell-based. To be noted: 184A1, read-out: GI50 Range 184A1. On the procedure:
(§2) Breast cancer cells (MCF-7, MDA-MB-468 and HCC1954), colon cancer cells (SW620) and lung cancer cells (A549), together with human mammary epithelial primary cells (HMEC) were seeded (1000 to 4000 per 80 μl per well depending on the cell growth rate) into 96-well plates 24 hours before compound overlay. Compounds were prepared as 10 mM stock solutions in 100% DMSO which were diluted with DMEM (Dulbecco's Modified Eagle's Medium) cell growth Medium (Invitrogen, Canada) containing 10% FBS (Fetal Bovine Serum) to concentrations ranging from 50 nM to 250 μM. Aliquots (20 μl) from each concentration were overlaid to 80 μl of the pre-seeded cells in the 96-plates to make final concentrations of 10 nM to 50 μM. The cells were cultured for 5 days before the Sulforhodamine B (SRB) assay was performed to determine the compound's cell growth inhibition activity.
(§3) Sulforhodamine B (Sigma, Canada) is a water-soluble dye that binds to the basic amino acids of cellular proteins. Thus, colorimetric measurement of the bound dye provides an estimate of the total protein mass that is related to the cell number. The cells are fixed in situ by gently aspirating off the culture media and adding 50 μl ice cold 10% Trichloroacetic Acid (TCA) per well and incubated at 4° C. for 30-60 min. The plates are washed with water five times and allowed to air dry for 5 min. Addition of 50 μl 0.4% (w/v) SRB solution in 1% (v/v) acetic acid to each well and incubatation for […] at RT completes the staining reaction. Following staining, plates are washed four times with 1% acetic acid to remove unbound dye and then allowed to air dry for 5 min. The stain is solubilized with 100 μl of 10 mM Tris pH 10.5 per well. Absorbance is read at 570 nm.
(§4) The percentage (%) of relative growth inhibition was calculated by comparing to DMSO-treated only cells (100%). GI50's were determined for compounds with cytotoxic activity. The GI50 was calculated using GraphPad PRISM software (GraphPad Software, Inc., USA).
(§5) The SRB assay described above was used to assay test compounds against the extended panel (Table 6).
(In general: Sulforhodamine B stains cellular protein and so reports cell mass.)

The test system of assay [6] is 518A2 melanoma cell line. The assay can be described thus: Cell growth inhibition, SRB assay, extended panel. The following applies: Homo sapiens, 518A2, read-out: GI50 Range 518A2. The class given is cell-based. On the procedure:
as §2, §3, §4, §5

Assay [7] has as its system A172 brain cancer cell line. The assay can be described thus: Cell growth inhibition, SRB assay, extended panel. Format: cell-based. The following applies: Homo sapiens, A 172, read-out: GI50 Range A172. On the procedure:
as §2, §3, §4, §5

Assay [8] relates to BT-474 breast cancer cell line. Description: Cell growth inhibition, SRB assay, extended panel. Format: cell-based. To be noted: Homo sapiens, BT-474, read-out: GI50 Range BT-474. On the procedure: as §2, §3, §4, §5
The test system of assay [9] is Colo 205 colon cancer cell line. The assay can be described thus: Cell growth inhibition, SRB assay, extended panel. The class given is cell-based. The following applies: Homo sapiens, COLO 205, read-out: GI50 Range Colo 205. As to the method:
as §2, §3, §4, §5

Assay [10] relates to H358 lung cancer cell line. The assay can be described thus: Cell growth inhibition, SRB assay, extended panel. The class given is cell-based. To be noted: Homo sapiens, NCI-H358, read-out: GI50 Range H358. On the procedure: as §2, §3, §4, §5
Assay [11] has as its system HCT-15 colon cancer cell line. Description: Cell growth inhibition, SRB assay, extended panel. Format: cell-based. To be noted: Homo sapiens, HCT-15, read-out: GI50 Range HCT-15. On the procedure:
as §2, §3, §4, §5

Assay [12] concerns Hs578T breast cancer cell line. Description: Cell growth inhibition, SRB assay, extended panel. The class given is cell-based. The following applies: Homo sapiens, Hs-578T, read-out: GI50 Range Hs578T. On the procedure: as §2, §3, §4, §5
Assay [13] concerns Hs683 brain cancer cell line. Description: Cell growth inhibition, SRB assay, extended panel. The class given is cell-based. The following applies: Homo sapiens, Hs 683, read-out: GI50 Range Hs683. As to the method: as §2, §3, §4, §5
In assay [14] the test system is OVCAR-3 ovarian cancer cell line. The assay can be described thus: Cell growth inhibition, SRB assay, extended panel. Format: cell-based. The following applies: Homo sapiens, OVCAR-3, read-out: GI50 Range OVCAR-3. On the procedure: as §2, §3, §4, §5
The subject of assay [15] is PC-3 prostate cancer cell line. Description: Cell growth inhibition, SRB assay, extended panel. The class given is cell-based. The following applies: read-out: GI50 Range PC-3. On the procedure: as §2, §3, §4, §5
In assay [16] the test system is SK-N-SH brain cancer cell line. The assay can be described thus: Cell growth inhibition, SRB assay, extended panel. The following applies: Homo sapiens, read-out: GI50 Range SK-N-SH. Format: cell-based. On the procedure:
as §2, §3, §4, §5

Assay [17] concerns SK-OV-3 ovarian cancer cell line. The assay can be described thus: Cell growth inhibition, SRB assay, extended panel. The class given is cell-based. The following applies: Homo sapiens, SK-OV-3, read-out: GI50 Range SK-OV-3. As to the method:
as §2, §3, §4, §5

The subject of assay [18] is SKBr-3 breast cancer cell line. The assay can be described thus: Cell growth inhibition, SRB assay, extended panel. The following applies: Homo sapiens, SK-BR-3, read-out: GI50 Range SKBr-3. The class given is cell-based. As to the method:
as §2, §3, §4, §5

In assay [19] the test system is SW626 ovarian cancer cell line. Description: Cell growth inhibition, SRB assay, extended panel. The class given is cell-based. To be noted: Homo sapiens, SW626, read-out: GI50 Range SW626. On the procedure: as §2, §3, §4, §5
For assay [20], the system named is T-47D breast cancer cell line. The assay can be described thus: Cell growth inhibition, SRB assay, extended panel. To be noted: Homo sapiens, T47D, read-out: GI50 Range T-47D. Format: cell-based. As to the method:
as §2, §3, §4, §5

Sequence of FGFR2 (P21802 22-821): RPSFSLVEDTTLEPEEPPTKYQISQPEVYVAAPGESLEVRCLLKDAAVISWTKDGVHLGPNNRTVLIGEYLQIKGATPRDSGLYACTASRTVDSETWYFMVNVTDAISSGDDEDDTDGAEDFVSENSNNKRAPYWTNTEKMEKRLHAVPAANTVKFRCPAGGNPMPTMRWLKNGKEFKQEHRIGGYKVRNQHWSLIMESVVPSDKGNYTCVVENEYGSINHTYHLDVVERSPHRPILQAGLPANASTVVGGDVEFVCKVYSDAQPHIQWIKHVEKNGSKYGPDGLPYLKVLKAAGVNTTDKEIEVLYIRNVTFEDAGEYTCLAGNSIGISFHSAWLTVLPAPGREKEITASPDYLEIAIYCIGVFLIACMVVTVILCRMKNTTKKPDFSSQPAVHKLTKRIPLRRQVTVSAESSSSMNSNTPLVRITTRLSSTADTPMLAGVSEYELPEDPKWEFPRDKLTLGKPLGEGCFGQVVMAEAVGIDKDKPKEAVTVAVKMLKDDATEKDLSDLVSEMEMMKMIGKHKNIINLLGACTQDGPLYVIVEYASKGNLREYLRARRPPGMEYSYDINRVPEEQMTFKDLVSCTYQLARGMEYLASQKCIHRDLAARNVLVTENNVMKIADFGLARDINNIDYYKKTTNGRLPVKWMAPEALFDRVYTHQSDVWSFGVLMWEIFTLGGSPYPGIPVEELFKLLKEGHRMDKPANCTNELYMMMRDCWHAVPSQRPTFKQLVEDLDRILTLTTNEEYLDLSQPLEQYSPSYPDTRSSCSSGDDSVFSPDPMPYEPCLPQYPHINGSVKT

A word on the % Inhibition: it is the share of the control response that was lost under treatment. The low end stands for a response near the control, the high end for a response far below the control. In the case of `CN(C)Cc1ccc(/C=C/c2n[nH]c3cc([C@H]4C[C@@]45C(=O)Nc4ccccc45)ccc23)cc1` (racemic) [Compound 35], in assay [1], the “% Inhibition at 10 μM Concentration” value stood at 69%.
A word on the GI50: it is the concentration giving 50% growth inhibition. On to `COc1ccc2c(c1)/C(=C\c1ccc3c(/C=C/c4ccc(N5CCN(C)CC5)nc4)n[nH]c3c1)C(=O)N2` [Compound 3], for which the inhibition at 10 µM was 4% in assay [2] and 32% in [3]. Besides, the GI50 in assay [4], in assay [5], in [6], in [7], in assay [8] and in assay [9] was less than 5 µM in each case. Also, the GI50 in assay [10], in assay [11], in assay [12], in assay [13], in assay [14] and in assay [15] was less than 5 µM in each case. Moreover, the GI50 in assay [16], in assay [17], in [18], in [19] and in assay [20] was less than 5 µM throughout.
